Results reported in PubChem BioAssay (NCI).
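Step 1: Grow cells in 96-well plates. Step 2: Expose to compound for 48 hours at 5 concentrations. Step 3: Interpolate endpoints linearly; if unreached, use highest concentration. Here, GI50 denotes the concentration required for 50% inhibition of growth. TGI marks complete inhibition of growth.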

Legend:
Assay in all cases: DTP human tumour cell line panel, 48 h
OVCAR-5 ovarian = tested on: OVCAR-5 ovarian
HCT-116 colon = tested on: HCT-116 colon
IGROV1 ovarian = tested on: IGROV1 ovarian
SK-MEL-5 melanoma = tested on: SK-MEL-5 melanoma
MCF7 breast = tested on: MCF7 breast
SF-539 CNS = tested on: SF-539 CNS
SR leukemia = tested on: SR leukemia
NCI-H226 lung = tested on: NCI-H226 lung
MDA-MB-435 = tested on: MDA-MB-435
A498 renal = tested on: A498 renal
SW-620 colon = tested on: SW-620 colon
CCRF-CEM leukemia = tested on: CCRF-CEM leukemia
HOP-62 NSCLC = tested on: HOP-62 NSCLC
BT-549 breast = tested on: BT-549 breast
MDA-MB-231 breast = tested on: MDA-MB-231 breast
K-562 leukemia = tested on: K-562 leukemia
NCI-H460 lung = tested on: NCI-H460 lung
CAKI-1 renal = tested on: CAKI-1 renal
NCI-H23 lung = tested on: NCI-H23 lung
MDA-MB-468 breast = tested on: MDA-MB-468 breast
OVCAR-4 ovarian = tested on: OVCAR-4 ovarian
HOP-92 NSCLC = tested on: HOP-92 NSCLC
NCI-H522 lung = tested on: NCI-H522 lung
SK-OV-3 ovarian = tested on: SK-OV-3 ovarian
786-0 renal = tested on: 786-0 renal
MALME-3M melanoma = tested on: MALME-3M melanoma
A549 NSCLC = tested on: A549 NSCLC
HCC-2998 colon = tested on: HCC-2998 colon
RXF 393 renal = tested on: RXF 393 renal
RPMI-8226 leukemia = tested on: RPMI-8226 leukemia
UACC-62 melanoma = tested on: UACC-62 melanoma
T-47D breast = tested on: T-47D breast
EKVX NSCLC = tested on: EKVX NSCLC
SNB-19 CNS = tested on: SNB-19 CNS
UACC-257 melanoma = tested on: UACC-257 melanoma
M14 melanoma = tested on: M14 melanoma
OVCAR-8 ovarian = tested on: OVCAR-8 ovarian
DU-145 prostate = tested on: DU-145 prostate
SF-295 CNS = tested on: SF-295 CNS
HCT-15 colon = tested on: HCT-15 colon
OVCAR-3 ovarian = tested on: OVCAR-3 ovarian
SN12C renal = tested on: SN12C renal
HT29 colon = tested on: HT29 colon
KM12 colon = tested on: KM12 colon
COLO 205 colon = tested on: COLO 205 colon
ACHN renal = tested on: ACHN renal
SK-MEL-2 melanoma = tested on: SK-MEL-2 melanoma
U251 CNS = tested on: U251 CNS
SK-MEL-28 melanoma = tested on: SK-MEL-28 melanoma
SF-268 CNS = tested on: SF-268 CNS
PC-3 prostate = tested on: PC-3 prostate
UO-31 renal = tested on: UO-31 renal

Question: Which results are given for Cc1cc(=O)oc2cc(OCCCOc3ccc(/C=C/C(=O)Nc4ccccc4N)cc3)ccc12?
Answer: GI50 (OVCAR-5 ovarian): 4.34 µM; TGI (OVCAR-5 ovarian): > 100 µM; GI50 (HCT-116 colon): 2.24 µM; TGI (HCT-116 colon): > 100 µM; GI50 (IGROV1 ovarian): 1.28 µM; TGI (IGROV1 ovarian): > 100 µM; GI50 (SK-MEL-5 melanoma): 0.716 µM; TGI (SK-MEL-5 melanoma): 2.06 µM; GI50 (MCF7 breast): 0.702 µM; TGI (MCF7 breast): > 100 µM; GI50 (SF-539 CNS): 2.22 µM; TGI (SF-539 CNS): > 100 µM; GI50 (SR leukemia): 1.81 µM; TGI (SR leukemia): > 100 µM; GI50 (NCI-H226 lung): 2.45 µM; TGI (NCI-H226 lung): > 100 µM; GI50 (MDA-MB-435): 4.42 µM; TGI (MDA-MB-435): > 100 µM; GI50 (A498 renal): 2.34 µM; TGI (A498 renal): 6.7 µM; GI50 (SW-620 colon): 3.6 µM; TGI (SW-620 colon): > 100 µM; GI50 (CCRF-CEM leukemia): 0.31 µM; TGI (CCRF-CEM leukemia): 1.91 µM; GI50 (HOP-62 NSCLC): 4.93 µM; TGI (HOP-62 NSCLC): > 100 µM; GI50 (BT-549 breast): 0.923 µM; TGI (BT-549 breast): 3.27 µM; GI50 (MDA-MB-231 breast): 3.33 µM; TGI (MDA-MB-231 breast): > 100 µM; GI50 (K-562 leukemia): 0.817 µM; TGI (K-562 leukemia): > 100 µM; GI50 (NCI-H460 lung): 1.79 µM; TGI (NCI-H460 lung): > 100 µM; GI50 (CAKI-1 renal): 3.38 µM; TGI (CAKI-1 renal): > 100 µM; GI50 (NCI-H23 lung): 3.64 µM; TGI (NCI-H23 lung): > 100 µM; GI50 (MDA-MB-468 breast): 1.94 µM; TGI (MDA-MB-468 breast): 8.14 µM; GI50 (OVCAR-4 ovarian): 2.82 µM; TGI (OVCAR-4 ovarian): > 100 µM; GI50 (HOP-92 NSCLC): 3.91 µM; TGI (HOP-92 NSCLC): > 100 µM; GI50 (NCI-H522 lung): 2.79 µM; TGI (NCI-H522 lung): > 100 µM; GI50 (SK-OV-3 ovarian): 5.29 µM; TGI (SK-OV-3 ovarian): > 100 µM; GI50 (786-0 renal): 3.13 µM; TGI (786-0 renal): > 100 µM; GI50 (MALME-3M melanoma): 3.27 µM; TGI (MALME-3M melanoma): > 100 µM; GI50 (A549 NSCLC): 3.31 µM; TGI (A549 NSCLC): > 100 µM; GI50 (HCC-2998 colon): 3.17 µM; TGI (HCC-2998 colon): > 100 µM; GI50 (RXF 393 renal): 4.16 µM; TGI (RXF 393 renal): > 100 µM; GI50 (RPMI-8226 leukemia): 0.276 µM; TGI (RPMI-8226 leukemia): 2.35 µM; GI50 (UACC-62 melanoma): 2.79 µM; TGI (UACC-62 melanoma): > 100 µM; GI50 (T-47D breast): 0.749 µM; TGI (T-47D breast): > 100 µM; GI50 (EKVX NSCLC): 3.5 µM; TGI (EKVX NSCLC): > 100 µM; GI50 (SNB-19 CNS): 3.72 µM; TGI (SNB-19 CNS): > 100 µM; GI50 (UACC-257 melanoma): 3.24 µM; TGI (UACC-257 melanoma): > 100 µM; GI50 (M14 melanoma): 3.16 µM; TGI (M14 melanoma): > 100 µM; GI50 (OVCAR-8 ovarian): 4.18 µM; TGI (OVCAR-8 ovarian): > 100 µM; GI50 (DU-145 prostate): 4.71 µM; TGI (DU-145 prostate): > 100 µM; GI50 (SF-295 CNS): 3.42 µM; TGI (SF-295 CNS): > 100 µM; GI50 (HCT-15 colon): 2.4 µM; TGI (HCT-15 colon): > 100 µM; GI50 (OVCAR-3 ovarian): 2.51 µM; TGI (OVCAR-3 ovarian): > 100 µM; GI50 (SN12C renal): 2.22 µM; TGI (SN12C renal): > 100 µM; GI50 (HT29 colon): 4.8 µM; TGI (HT29 colon): > 100 µM; GI50 (KM12 colon): 3.9 µM; TGI (KM12 colon): > 100 µM; GI50 (COLO 205 colon): 2.14 µM; TGI (COLO 205 colon): 5.81 µM; GI50 (ACHN renal): 4.5 µM; TGI (ACHN renal): > 100 µM; GI50 (SK-MEL-2 melanoma): 3.78 µM; TGI (SK-MEL-2 melanoma): > 100 µM; GI50 (U251 CNS): 5.49 µM; TGI (U251 CNS): > 100 µM; GI50 (SK-MEL-28 melanoma): 3.6 µM; TGI (SK-MEL-28 melanoma): > 100 µM; GI50 (SF-268 CNS): 1.95 µM; TGI (SF-268 CNS): > 100 µM; GI50 (PC-3 prostate): 3.07 µM; TGI (PC-3 prostate): > 100 µM; GI50 (UO-31 renal): 0.775 µM; TGI (UO-31 renal): > 100 µM
